# Source: patent US6710075B2, “Therapeutic compounds and methods” (The Government of the State of Sarawak, Malaysia, priority 2000, dated 2004)
# Tests used:
# [1] = tested on: THP-1 cells; assay: DNA content analysis (cell cycle and viability) of THP-1 cells; assay type: cell-based, human; settings: THP-1, 10 nM, 2 days
# Protocol: THP-1 cells were cultured for 2 days with the indicated concentration of Compound A or 1000 nM paclitaxel then collected and fixed in 70% ethanol prior to staining with propidium iodide and DNA content determined by flow cytometry. The numbers indicate the % of cells in the various cell cycle phases relative to all cells with ≧2N DNA content and also the % dead cells (ie. subdiploid≦2N cells) to the left of the marker (the vertical line) that arose during the culture period.
# [2] = tested on: PC3 human prostate tumour cells; assay: Mouse xenograft tumour model; assay type: in vivo; settings: 3 mg/kg intraperitoneal three times a week
# Protocol: Athymic Balb/c nude mice (Rygard and Povisen, 1969, Acta Pathol Microbiol Scand, 77: 758) were inoculated subcutaneously in the dorsal flank with 2×10^6 PC3 cells. Compound A was administered (3 mg/kg) after eight days when the tumours became palpable by intraperitoneal injection three times a week. Compound A was first solubilized in ethanol then mixed 1:1 with cremaphore and diluted in saline for injection. Control animals were treated in an analogous manner with the same vehicle but lacking Compound A. (A) Effect of Compound A on mean tumour volume. Tumour volumes were measured using a micrometer caliper at the indicated times. The data represents mean tumour volume ±SEM (B) Effect of Compound A on mean tumour mass. At the end of the experiment (29 days post inoculation of PC3 cells) the mice were sacrificed, the tumours excised and then weighed. The data represents mean tumour weight ±SEM.
# The ability of Compound A to inhibit growth of human tumour cells in vivo was assessed using male athymic mice injected subcutaneously in the dorsal flank region with 2×10^6 PC3 human prostate tumour cells. Compound A administration (3 mg/kg) by intraperitoneal injection commenced after eight days once the PC3 tumour was palpable and continued three times a week until 29 days after the initial inoculation of the tumour cells. At this time all mice were killed and tumours excised and weighed.
smiles,measurement,setting,value
"COC(=O)[C@H]1[C@@H](O)[C@@]2(O)c3c(OC)cc(OC4OC(C(O)CO)COC4OC)cc3O[C@@]2(c2ccc(OC)cc2)[C@@H]1c1ccccc1 (single isomer, unassigned) [Compound A]",cell cycle phase accumulation,[1],caused cells to accumulate in the G0/G1 phases of the cell cycle
same,accumulation of dead cells,[1]; untreated 7%,17%
same,reduction of mean tumour weight,[2]; 29 days post inoculation,~60%
same,mean tumour volume,[2]; vs vehicle,greatly reduced increase in mean tumour volume
